Measured values taken from publication PMC10531082, “Antiproliferative and Antimetastatic Properties of 16-Azidomethyl Substituted 3-O-Benzyl Estrone Analogs” (International Journal of Molecular Sciences, 2023).
Like-named read-outs stand apart in the source and are kept apart here.

What was measured:
estrogen receptor (ERα) = target: T1, estrogen receptor (ERα) (Homo sapiens, UniProt P03372); test: estrogen-responsive luciferase reporter assay in T47D-KBluc cells (agonism); assay type: cell-based
T1 construct: gene ESR1

HeLa [1] = test: cells; parameters: MTT antiproliferative assay, absorbance at 545 nm, inhibition versus untreated control; settings: Homo sapiens; for inhibition at 10 µM / inhibition at 30 µM: read-out: Growth inhibition (%) HeLa
Description: (§1) The antiproliferative capacities of the prepared compounds were determined by employing the MTT assay against a panel of human adherent cancer cell lines isolated from breast (MCF-7 and MDA-MB-231) or cervical (HeLa and SiHa) tumors. All compounds were tested at two concentrations (10 and 30 μM). When >50% of antiproliferative capacity was obtained at 10 μM, the assays were repeated with a broader concentration range (0.1–30 μM), and IC50 values were calculated (Figure 2, Supplementary Table S1, Supplementary Figure S1). […] MTT assays were performed against the non-cancerous fibroblast cell line NIH/3T3 to obtain preliminary data on cancer selectivity of 16AABE and 16BABE. […] The ratios of IC50 values obtained against cancer cells and fibroblasts were in the range of 0.2 and 0.5, indicating substantial cancer selectivity of these two compounds (Table 1). Cancer cells were seeded onto a 96-well microplate for the proliferation assay at a density of 5000 cells/well. After 24 h of incubation, 200 μL of new medium containing the test compounds at 10 or 30 µM concentrations was added. Absorbance of the reduced MTT solution was measured at 545 nm using a microplate reader, with untreated cells serving as the negative control. In the case of active compounds (i.e., >50% cell growth inhibition at 10 μM), the assay was repeated with a series of dilutions, and sigmoidal dose–response curves were fitted to the obtained data. The IC50 values, representing the concentration at which cell proliferation was reduced by 50% compared with the untreated control, were calculated using GraphPad Prism 5 (GraphPad Software, San Diego, CA, USA). Each in vitro experiment was conducted on two microplates with a minimum of five parallel wells. […] Cisplatin was used as a reference agent.

MCF-7 [2] = test: cells; parameters: MTT antiproliferative assay, absorbance at 545 nm, inhibition versus untreated control; settings: Homo sapiens, MCF7; for inhibition at 10 µM / inhibition at 30 µM: read-out: Growth inhibition (%) MCF-7
Description: as §1

MDA-MB-231 [3] = test: cells; parameters: MTT antiproliferative assay, absorbance at 545 nm, inhibition versus untreated control; settings: Homo sapiens; for inhibition at 10 µM / inhibition at 30 µM: read-out: Growth inhibition (%) MDA-MB-231
Description: as §1

SiHa [4] = test: cells; parameters: MTT antiproliferative assay, absorbance at 545 nm, inhibition versus untreated control; settings: Homo sapiens; for inhibition at 10 µM / inhibition at 30 µM: read-out: Growth inhibition (%) SiHa
Description: as §1

in vitro = test: in vitro; parameters: MTT assay on non-cancerous NIH/3T3 fibroblasts, absorbance at 545 nm, selectivity counter-screen; settings: mouse, nih/3t3 cells; read-out: IC50 NIH/3T3
Description: The antiproliferative capacities of the prepared compounds were determined by employing the MTT assay against a panel of human adherent cancer cell lines isolated from breast (MCF-7 and MDA-MB-231) or cervical (HeLa and SiHa) tumors. All compounds were tested at two concentrations (10 and 30 μM). When >50% of antiproliferative capacity was obtained at 10 μM, the assays were repeated with a broader concentration range (0.1–30 μM), and IC50 values were calculated (Figure 2, Supplementary Table S1, Supplementary Figure S1). […] MTT assays were performed against the non-cancerous fibroblast cell line NIH/3T3 to obtain preliminary data on cancer selectivity of 16AABE and 16BABE. […] The ratios of IC50 values obtained against cancer cells and fibroblasts were in the range of 0.2 and 0.5, indicating substantial cancer selectivity of these two compounds (Table 1). The antiproliferative activity of the presented compounds were evaluated against a panel of human gynecological cancer cell lines. MCF-7 and MDA-MB-231 cell lines were derived from breast cancers, while HeLa and SiHa cell lines originated from cervical cancers of different pathological backgrounds. […] Absorbance of the reduced MTT solution was measured at 545 nm using a microplate reader, with untreated cells serving as the negative control. […]

HeLa [5] = test: cells; parameters: MTT assay, growth inhibition of cells relative to untreated control; settings: Homo sapiens, HeLa; for inhibition at 10 µM: read-out: Growth inhibition (%) at 10 uM; for inhibition at 30 µM: read-out: Growth inhibition (%) at 30 uM
Description: (§2) Cancer cells were seeded onto a 96-well microplate for the proliferation assay at a density of 5000 cells/well. After 24 h of incubation, 200 μL of new medium containing the test compounds at 10 or 30 µM concentrations was added. Absorbance of the reduced MTT solution was measured at 545 nm using a microplate reader, with untreated cells serving as the negative control. In the case of active compounds (i.e., >50% cell growth inhibition at 10 μM), the assay was repeated with a series of dilutions, and sigmoidal dose–response curves were fitted to the obtained data. The IC50 values, representing the concentration at which cell proliferation was reduced by 50% compared with the untreated control, were calculated using GraphPad Prism 5 (GraphPad Software, San Diego, CA, USA). Each in vitro experiment was conducted on two microplates with a minimum of five parallel wells. […] Cisplatin was used as a reference agent. The antiproliferative capacities of the prepared compounds were determined by employing the MTT assay against a panel of human adherent cancer cell lines isolated from breast (MCF-7 and MDA-MB-231) or cervical (HeLa and SiHa) tumors. All compounds were tested at two concentrations (10 and 30 μM). When >50% of antiproliferative capacity was obtained at 10 μM, the assays were repeated with a broader concentration range (0.1–30 μM), and IC50 values were calculated (Figure 2, Supplementary Table S1, Supplementary Figure S1). […] MTT assays were performed against the non-cancerous fibroblast cell line NIH/3T3 to obtain preliminary data on cancer selectivity of 16AABE and 16BABE. […] The ratios of IC50 values obtained against cancer cells and fibroblasts were in the range of 0.2 and 0.5, indicating substantial cancer selectivity of these two compounds (Table 1).

MCF-7 [6] = test: cells; parameters: MTT assay, growth inhibition of cells relative to untreated control; settings: Homo sapiens, MCF7; for inhibition at 10 µM: read-out: Growth inhibition (%) at 10 uM; for inhibition at 30 µM: read-out: Growth inhibition (%) at 30 uM
Description: as §2

MDA-MB-231 [7] = test: cells; parameters: MTT assay, growth inhibition of cells relative to untreated control; settings: Homo sapiens, MDA-MB-231; for inhibition at 10 µM: read-out: Growth inhibition (%) at 10 uM; for inhibition at 30 µM: read-out: Growth inhibition (%) at 30 uM
Description: as §2

NIH/3T3 = test: cells; parameters: MTT assay, growth inhibition of cells relative to untreated control; settings: Mus musculus, NIH3T3; read-out: Growth inhibition (%) at 30 uM
Description: as §2

SiHa [8] = test: cells; parameters: MTT assay, growth inhibition of cells relative to untreated control; settings: Homo sapiens, SiHa; for inhibition at 10 µM: read-out: Growth inhibition (%) at 10 uM; for inhibition at 30 µM: read-out: Growth inhibition (%) at 30 uM
Description: as §2

T1 sequence (P03372 whole entry): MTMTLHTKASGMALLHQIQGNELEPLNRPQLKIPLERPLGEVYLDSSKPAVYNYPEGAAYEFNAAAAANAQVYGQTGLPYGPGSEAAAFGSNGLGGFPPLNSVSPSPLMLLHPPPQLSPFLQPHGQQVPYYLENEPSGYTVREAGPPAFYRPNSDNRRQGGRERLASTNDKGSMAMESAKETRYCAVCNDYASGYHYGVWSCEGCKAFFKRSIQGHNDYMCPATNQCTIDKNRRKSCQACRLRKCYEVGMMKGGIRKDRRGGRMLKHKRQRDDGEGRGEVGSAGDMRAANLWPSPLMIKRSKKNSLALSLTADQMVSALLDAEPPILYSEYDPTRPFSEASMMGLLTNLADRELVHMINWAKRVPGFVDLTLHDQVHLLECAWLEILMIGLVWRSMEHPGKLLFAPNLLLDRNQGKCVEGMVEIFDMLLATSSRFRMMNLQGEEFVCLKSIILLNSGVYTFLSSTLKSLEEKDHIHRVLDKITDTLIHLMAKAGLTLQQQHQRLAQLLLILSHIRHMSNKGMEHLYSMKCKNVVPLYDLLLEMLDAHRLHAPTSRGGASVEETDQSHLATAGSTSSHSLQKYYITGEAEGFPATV

| SMILES | IC50 (HeLa [1]) | IC50 (MCF-7 [2]) | IC50 (MDA-MB-231 [3]) | IC50 (SiHa [4]) | CC50 (in vitro) | inhibition at 10 µM (HeLa [5]) | inhibition at 30 µM (HeLa [5]) | inhibition at 10 µM (MCF-7 [6]) | inhibition at 30 µM (MCF-7 [6]) | inhibition at 10 µM (MDA-MB-231 [7]) | inhibition at 30 µM (MDA-MB-231 [7]) | inhibition at 30 µM (NIH/3T3) | inhibition at 10 µM (HeLa [1]) | inhibition at 30 µM (HeLa [1]) | inhibition at 10 µM (MCF-7 [2]) | inhibition at 30 µM (MCF-7 [2]) | inhibition at 10 µM (MDA-MB-231 [3]) | inhibition at 30 µM (MDA-MB-231 [3]) | inhibition at 10 µM (SiHa [4]) | inhibition at 30 µM (SiHa [4]) | also measured |
| --- | --- | --- | --- | --- | --- | --- | --- | --- | --- | --- | --- | --- | --- | --- | --- | --- | --- | --- | --- | --- | --- |
| C[C@]12CC[C@@H]3c4ccc(OCc5ccccc5)cc4CC[C@H]3[C@@H]1C[C@H](CN=[N+]=[N-])C2=O [16BABE, 16β-azidomethyl-3-benzyloxyestra-1,3,5(10)-trien-17-on] | 4.6 µM | 3.15 µM | 8.13 µM | 3.85 µM | 18.9 µM | 93.4 ± 0.13% | 94.33 ± 0.32% | 92.94 ± 0.37% | 93.79 ± 0.4% | 93.65 ± 0.24% | 95.03 ± 0.23% | 94.8 ± 1.63% |  |  |  |  |  |  |  |  | EC50 (estrogen receptor (ERα)): ~0.178 µM; inhibition at 10 µM (SiHa [8]): 90.73 ± 0.53%; inhibition at 30 µM (SiHa [8]): 91.08 ± 0.55% |
| C[C@]12CC[C@@H]3c4ccc(OCc5ccccc5)cc4CC[C@H]3[C@@H]1C[C@@H](CN=[N+]=[N-])C2=O [16AABE, 16α-azidomethyl-3-benzyloxyestra-1,3,5(10)-trien-17-on] | 5.01 µM | 3.13 µM | 4.72 µM | 4.1 µM | 13.6 µM | 93.22 ± 0.92% | 93.96 ± 0.23% | 91.73 ± 0.71% | 93.85 ± 0.22% | 93.53 ± 0.17% | 95.11 ± 0.31% | 98.29 ± 0.41% |  |  |  |  |  |  |  |  | inhibition at 10 µM (SiHa [8]): 90.1 ± 0.66%; inhibition at 30 µM (SiHa [8]): 91.48 ± 0.55% |
| C[C@]12CC[C@@H]3c4ccc(OCc5ccccc5)cc4CC[C@H]3[C@@H]1C[C@@H](CN=[N+]=[N-])[C@@H]2O [compound 3, 3] |  |  |  |  |  |  |  |  |  |  |  |  | 25 ± 2.26% | 93.35 ± 0.32% | 27.3 ± 1.28% | 92.55 ± 0.18% | 33.5 ± 2.92% | 89 ± 0.9% | < 20% | 86.46 ± 0.36% |  |
| C[C@]12CC[C@@H]3c4ccc(OCc5ccccc5)cc4CC[C@H]3[C@@H]1C[C@H](CN=[N+]=[N-])[C@@H]2O [compound 1, 1] |  |  |  |  |  |  |  |  |  |  |  |  | 33.97 ± 0.33% | 93.1 ± 0.21% | 38.8 ± 0.81% | 92.64 ± 0.22% | 34.07 ± 0.27% | 92.92 ± 0.09% | < 20% | 89.93 ± 0.2% |  |
| C[C@]12CC[C@@H]3c4ccc(OCc5ccccc5)cc4CC[C@H]3[C@@H]1C[C@@H](CN=[N+]=[N-])[C@H]2O [compound 4, 4] |  |  |  |  |  |  |  |  |  |  |  |  | 26.6 ± 1.78% | 52.89 ± 0.49% | < 20% | 52.4 ± 2.5% | 25.1 ± 2.83% | 57.3 ± 0.98% | < 20% | 31.9 ± 0.69% |  |
| C[C@]12CC[C@@H]3c4ccc(OCc5ccccc5)cc4CC[C@H]3[C@@H]1C[C@H](CN=[N+]=[N-])[C@H]2O [compound 2, 2] |  |  |  |  |  |  |  |  |  |  |  |  | 29.1 ± 1.06% | 55.5 ± 2.06% | 20.2 ± 2.19% | 51.9 ± 1.85% | 45.1 ± 1.69% | 64.2 ± 1.39% |  | 43.2 ± 2.58% |  |
